How the values were obtained:
Assay type in all cases: cell-based, B. subtilis
ltaS mutant [1] = experiment: Zone of inhibition on solid medium, ltaS mutant compared with wild-type; conditions: data not shown
From the text: (§1) In the process of constructing the deletion strain, we noticed that the ltaS mutant was also hyper-sensitive to various antibiotics and lysozyme. […] In other experiments on solid medium the zone of inhibition of all antibiotics tested (kanamycin, ampicillin, vancomycin, penicillin, spectinomycin, erythromycin, lincomycin, carbenicillin) was wider for the ltaS mutant than for the wild-type (not shown). […] The general increase in sensitivity of the mutant to antibiotics and lysozyme is consistent with the notion that LTA also provides a protective layer that restricts the access of many bioactive agents to sensitive sites in the cell envelope.

wild-type (168) = experiment: Sensitivity to cations, dilutions spotted on NA plates, wild-type; conditions: 0.05 mM MnSO4 added to nutrient agar (NA), 37° C.
Method: (§2) FIG. 3—Effect of metal ion concentration of viability of wild-type and ltaS mutants: A. Growth of wild-type (168) and ltaS mutant (strain 4286) at 37° C. in on NA plates without additives (left), containing 0.5 mM Mg^2+ (middle) or with addition of 0.05 mM Mn^2+ (right). B. Growth of ltaS mutant (strain 4283, left) and wild-type (strain 168, right) on minimal medium plates containing 10, 100 and 500 μM Mg^2+ as indicated.
(§3) Liquid cultures of B. subtilis strains were grown in Difco Antibiotic Medium 3 (PAB), CH medium (Nicholson & Setlow, 1990), or S-medium (Karamata & Gross, 1970) at 37° C. Nutrient agar (Oxoid) plates were used for growth on solid medium, Modified Salts Medium plates with defined Mg^2+ concentrations were prepared as described previously (Carballido-López et al., 2006). The given concentration of Mg^2+ was achieved by addition of MgSO4 to the medium. DNA manipulations and B. subtilis strains were transformed according to the method of Anagnostopoulos and Spizizen (1961) as modified by Jenkinson (1983). Selection for B. subtilis transformants was carried out on nutrient agar (Oxoid), supplemented with antibiotics, as required, with: kanamycin ([…]) chloramphenicol ([…]), erythromycin ([…] ml^−1), lincomycin ([…] ml^−1) and/or spectinomycin ([…]). […]

[2] = tested on: ltaS mutant (strain 4286); experiment: Sensitivity to cations, dilutions spotted on NA plates, ltaS mutant; conditions: 37° C.
Method: as §2, §3

ltaS mutant [3] = experiment: Susceptibility of ltaS mutant to lysozyme; conditions: data not shown
From the text: as §1

Row | Molecule | zone of inhibition for the ltaS mutant versus the wild-type (ltaS mutant [1]) | other results
1 | penicillin | wider | –
2 | O=S(=O)([O-])[O-].[Mn+2] [MnSO4] | – | growth of the wild-type (wild-type (168)): unaffected; growth of the ltaS mutant ([2]; 0.05 mM MnSO4 added to nutrient agar (NA)): abolished growth
3 | CN[C@@H]1[C@H](O)[C@H](NC)[C@H]2O[C@@]3(O)C(=O)C[C@@H](C)O[C@H]3O[C@@H]2[C@H]1O [spectinomycin] | wider | –
4 | CCC[C@@H]1C[C@@H](C(=O)N[C@@H]([C@H]2O[C@H](SC)[C@H](O)[C@@H](O)[C@H]2O)[C@@H](C)O)N(C)C1 [lincomycin] | wider | –
5 | O=S(=O)([O-])[O-].[Mg+2] [Mg^2+, MgSO4] | – | growth of the ltaS mutant ([2]; 0.5 mM Mg^2+ added to nutrient agar (NA)): no effect
6 | lysozyme | – | susceptibility of the ltaS mutant to lysozyme (ltaS mutant [3]): increased susceptibility
7 | CC1(C)S[C@@H]2[C@H](NC(=O)C(C(=O)O)c3ccccc3)C(=O)N2[C@H]1C(=O)O (some centres unmarked) [carbenicillin] | wider | –
8 | CN[C@H](CC(C)C)C(=O)N[C@H]1C(=O)N[C@@H](CC(N)=O)C(=O)N[C@H]2C(=O)N[C@H]3C(=O)N[C@H](C(=O)N[C@H](C(=O)O)c4cc(O)cc(O)c4-c4cc3ccc4O)[C@H](O)c3ccc(c(Cl)c3)Oc3cc2cc(c3O[C@@H]2O[C@H](CO)[C@@H](O)[C@H](O)[C@H]2O[C@H]2C[C@](C)(N)[C@H](O)[C@H](C)O2)Oc2ccc(cc2Cl)[C@H]1O [vancomycin] | wider | –
9 | CC[C@H]1OC(=O)[C@H](C)[C@@H](O[C@H]2C[C@@](C)(OC)[C@@H](O)[C@H](C)O2)[C@H](C)[C@@H](O[C@@H]2O[C@H](C)C[C@H](N(C)C)[C@H]2O)[C@](C)(O)C[C@@H](C)C(=O)[C@H](C)[C@@H](O)[C@]1(C)O [erythromycin] | wider | –
10 | CC1(C)S[C@@H]2[C@H](NC(=O)[C@H](N)c3ccccc3)C(=O)N2[C@H]1C(=O)O [ampicillin] | wider | –

Reference: US20110282028A1, “METHOD FOR IDENTIFYING INHIBITORS OF LIPOTEICHOIC ACID SYNTHASE” (UNIVERSITY OF NEWCASTLE UPON TYNE, priority 2008, published 2011)
